{
  "source": "patent US20220130517A1",
  "about": "“PS[…] VARIOUS MENTAL HEALTH DISORDERS” (Ketamine SLC, priority 2020, published 2022)",
  "origin": "cited, not measured here",
  "tested_on": "mental health disorder",
  "details": "IV drip over 40 minutes, 0.5 mg/kg per session, six sessions over twelve days; some patients",
  "data": [
    {"compound": "CNC1(c2ccccc2Cl)CCCCC1=O", "note": "(stereo not shown) [ketamine]", "values": [
      {"measurement": "relief from the symptoms of mental health disorder", "value": "some patients experience relief from the symptoms of their mental health disorder for a period of time including weeks and/or months"}
    ]}
  ]
}
